60 compounds from patent US20230123334A1, “AMINO LIPID COMPOUND, PREPARATION METHOD THEREFOR, AND APPLICATION THEREOF” (SHENZHEN SHENXIN BIOTECHNOLOGY CO., LTD., priority 2020, published 2023) can be followed below.

In this assay the test system is HEK293 cells. Put plainly: Preliminary screening as mRNA vectors, EGFP mRNA transfection of HEK293 cells. The format is cell-based. Particulars: EGFP mRNA 50 ng per well, 96-well plates; percentage of GFP fluorescent cells relative to total number of cells (Hoechst). Here is the method: Cell line: HEK293 cells (ATCC CRL-1573™)
Medium: DMEM supplemented with 10% fetal bovine serum (Invitrogen)
Screening: cell transfection on 96-well plates
Detection (readout): percentage of the number of GFP fluorescent cells relative to the total number of cells (the total number of cells was determined using nucleus dye Hoechst). Lipofectamine2000 (Invitrogen) was used as the positive control.
Method: the experimental method was basically the same with Example 4, and the mass of EGFP mRNA (TriLink) for transfection was 50 ng per well.

For the compound `CCCCCCCCCCCCCCCNc1nc(NCCN(C)C)nc(SCCCCCCCCCC)n1` [Compound D1S10N15], the “Absolute mRNA transfection efficiency in HEK293 cells” value (“Absolute mRNA transfection efficiency” below) was determined as 2.8%.
On to `CCCCCCCCCCCCCCCCNc1nc(NCCN(C)C)nc(SCCCCCCCCCC)n1` [Compound D1S10N16], for which the “Absolute mRNA transfection efficiency” value came to 40.7%.
To `CCCCCCCCCCCCCCCCCCNc1nc(NCCN(C)C)nc(SCCCCCCCCCC)n1` [Compound D1S10N18] belongs 4.8%; to `CCCCCCCCCCCSc1nc(NCCCCCC)nc(NCCN(C)C)n1` [Compound D1S11N6], 4.4%.
For `CCCCCCCCCCCSc1nc(NCCCCCCC)nc(NCCN(C)C)n1` [Compound D1S11N7], the “Absolute mRNA transfection efficiency” value stood at 11.7%.
Consider `CCCCCCCCCCCSc1nc(NCCCCCCCC)nc(NCCN(C)C)n1` [Compound D1S11N8], for which the “Absolute mRNA transfection efficiency” value amounted to 13.1%.
As to `CCCCCCCCCCCSc1nc(NCCCCCCCCC)nc(NCCN(C)C)n1` [Compound D1S11N9], the “Absolute mRNA transfection efficiency” value was determined as 14.7%.
`CCCCCCCCCCCNc1nc(NCCN(C)C)nc(SCCCCCCCCCCC)n1` [Compound D1S11N11]: the “Absolute mRNA transfection efficiency” value was 24.7%.
Regarding `CCCCCCCCCCCCNc1nc(NCCN(C)C)nc(SCCCCCCCCCCC)n1` [Compound D1S11N12], the “Absolute mRNA transfection efficiency” value is recorded as 27.3%.
For `CCCCCCCCCCCCCNc1nc(NCCN(C)C)nc(SCCCCCCCCCCC)n1` [Compound D1S11N13], the “Absolute mRNA transfection efficiency” value was determined as 12.6%.
With `CCCCCCCCCCCCCCCNc1nc(NCCN(C)C)nc(SCCCCCCCCCCC)n1` [Compound D1S11N15], the “Absolute mRNA transfection efficiency” value amounted to 6.2%.
As for `CCCCCCCCCCCCCCCCNc1nc(NCCN(C)C)nc(SCCCCCCCCCCC)n1` [Compound D1S11N16], the “Absolute mRNA transfection efficiency” value amounted to 13.0%.
For `CCCCCCCCCCCCCCCCCCNc1nc(NCCN(C)C)nc(SCCCCCCCCCCC)n1` [Compound D1S11N18], the “Absolute mRNA transfection efficiency” value is given as 15.4%.
For the compound `CCCCCCCCCCCCSc1nc(NCCCCCC)nc(NCCN(C)C)n1` [Compound D1S12N6], the “Absolute mRNA transfection efficiency” value came out at 0.0%.
In the case of `CCCCCCCCCCCCSc1nc(NCCCCCCC)nc(NCCN(C)C)n1` [Compound D1S12N7], the “Absolute mRNA transfection efficiency” value is recorded as 1.5%.
To `CCCCCCCCCCCCSc1nc(NCCCCCCCC)nc(NCCN(C)C)n1` [Compound D1S12N8] belongs 11.3%.
Regarding `CCCCCCCCCCCCSc1nc(NCCCCCCCCC)nc(NCCN(C)C)n1` [Compound D1S12N9], the “Absolute mRNA transfection efficiency” value is listed as 34.2%.
As to `CCCCCCCCCCCCSc1nc(NCCCCCCCCCCC)nc(NCCN(C)C)n1` [Compound D1S12N11], the “Absolute mRNA transfection efficiency” value is recorded as 2.6%.
Consider `CCCCCCCCCCCCNc1nc(NCCN(C)C)nc(SCCCCCCCCCCCC)n1` [Compound D1S12N12], for which the “Absolute mRNA transfection efficiency” value is 1.7%.
For the compound `CCCCCCCCCCCCCNc1nc(NCCN(C)C)nc(SCCCCCCCCCCCC)n1` [Compound D1S12N13], the “Absolute mRNA transfection efficiency” value was determined as 1.2%.
Under `CCCCCCCCCCCCCCCNc1nc(NCCN(C)C)nc(SCCCCCCCCCCCC)n1` [Compound D1S12N15] stands 0.5%; under `CCCCCCCCCCCCCCCCNc1nc(NCCN(C)C)nc(SCCCCCCCCCCCC)n1` [Compound D1S12N16], 0.0%; under `CCCCCCCCCCCCCCCCCCNc1nc(NCCN(C)C)nc(SCCCCCCCCCCCC)n1` [Compound D1S12N18], 0.0%.
For the compound `CCCCCCCCCCCCCCSc1nc(NCCCCCC)nc(NCCN(C)C)n1` [Compound D1S14N6], the “Absolute mRNA transfection efficiency” value amounted to 29.1%.
For `CCCCCCCCCCCCCCSc1nc(NCCCCCCC)nc(NCCN(C)C)n1` [Compound D1S14N7], the “Absolute mRNA transfection efficiency” value was found to be 25.7%.
In the case of `CCCCCCCCCCCCCCSc1nc(NCCCCCCCC)nc(NCCN(C)C)n1` [Compound D1S14N8], the “Absolute mRNA transfection efficiency” value is 56.7%.
To `CCCCCCCCCCCCCCSc1nc(NCCCCCCCCC)nc(NCCN(C)C)n1` [Compound D1S14N9] belongs 39.0%; to `CCCCCCCCCCCCCCSc1nc(NCCCCCCCCCCC)nc(NCCN(C)C)n1` [Compound D1S14N11], 14.3%.
For `CCCCCCCCCCCCCCSc1nc(NCCCCCCCCCCCC)nc(NCCN(C)C)n1` [Compound D1S14N12], the “Absolute mRNA transfection efficiency” value amounted to 9.6%.
As to `CCCCCCCCCCCCCCSc1nc(NCCCCCCCCCCCCC)nc(NCCN(C)C)n1` [Compound D1S14N13], the “Absolute mRNA transfection efficiency” value amounted to 6.0%.
Turning to `CCCCCCCCCCCCCCCNc1nc(NCCN(C)C)nc(SCCCCCCCCCCCCCC)n1` [Compound D1S14N15], the “Absolute mRNA transfection efficiency” value stood at 1.1%.
To `CCCCCCCCCCCCCCCCNc1nc(NCCN(C)C)nc(SCCCCCCCCCCCCCC)n1` [Compound D1S14N16] belongs 1.8%; to `CCCCCCCCCCCCCCCCCCNc1nc(NCCN(C)C)nc(SCCCCCCCCCCCCCC)n1` [Compound D1S14N18], 1.8%; to `CCCCCCCCCCCCCCCSc1nc(NCCCCCC)nc(NCCN(C)C)n1` [Compound D1S15N6], 37.7%.
`CCCCCCCCCCCCCCCSc1nc(NCCCCCCC)nc(NCCN(C)C)n1` [Compound D1S15N7]: the “Absolute mRNA transfection efficiency” value came to 66.1%.
For `CCCCCCCCCCCCCCCSc1nc(NCCCCCCCC)nc(NCCN(C)C)n1` [Compound D1S15N8], the “Absolute mRNA transfection efficiency” value is reported as 98.3%.
Regarding `CCCCCCCCCCCCCCCSc1nc(NCCCCCCCCC)nc(NCCN(C)C)n1` [Compound D1S15N9], the “Absolute mRNA transfection efficiency” value came to 96.3%.
Turning to `CCCCCCCCCCCCCCCSc1nc(NCCCCCCCCCCC)nc(NCCN(C)C)n1` [Compound D1S15N11], the “Absolute mRNA transfection efficiency” value is 11.9%.
Regarding `CCCCCCCCCCCCCCCSc1nc(NCCCCCCCCCCCC)nc(NCCN(C)C)n1` [Compound D1S15N12], the “Absolute mRNA transfection efficiency” value is 4.8%.
On to `CCCCCCCCCCCCCCCSc1nc(NCCCCCCCCCCCCC)nc(NCCN(C)C)n1` [Compound D1S15N13], for which the “Absolute mRNA transfection efficiency” value was 1.5%.
Take `CCCCCCCCCCCCCCCNc1nc(NCCN(C)C)nc(SCCCCCCCCCCCCCCC)n1` [Compound D1S15N15]: the “Absolute mRNA transfection efficiency” value stood at 0.3%.
For the compound `CCCCCCCCCCCCCCCCNc1nc(NCCN(C)C)nc(SCCCCCCCCCCCCCCC)n1` [Compound D1S15N16], the “Absolute mRNA transfection efficiency” value is 3.2%.
Take `CCCCCCCCCCCCCCCCCCNc1nc(NCCN(C)C)nc(SCCCCCCCCCCCCCCC)n1` [Compound D1S15N18]: the “Absolute mRNA transfection efficiency” value was 3.8%.
Take `CCCCCCCCCCCCCCCCSc1nc(NCCCCCC)nc(NCCN(C)C)n1` [Compound D1S16N6]: the “Absolute mRNA transfection efficiency” value was determined as 54.2%.
For the compound `CCCCCCCCCCCCCCCCSc1nc(NCCCCCCC)nc(NCCN(C)C)n1` [Compound D1S16N7], the “Absolute mRNA transfection efficiency” value is listed as 65.1%.
Take `CCCCCCCCCCCCCCCCSc1nc(NCCCCCCCC)nc(NCCN(C)C)n1` [Compound D1S16N8]: the “Absolute mRNA transfection efficiency” value turned out to be 40.3%.
On to `CCCCCCCCCCCCCCCCSc1nc(NCCCCCCCCC)nc(NCCN(C)C)n1` [Compound D1S16N9], for which the “Absolute mRNA transfection efficiency” value was 26.4%.
Under `CCCCCCCCCCCCCCCCSc1nc(NCCCCCCCCCCC)nc(NCCN(C)C)n1` [Compound D1S16N11] stands 19.8%; under `CCCCCCCCCCCCCCCCSc1nc(NCCCCCCCCCCCC)nc(NCCN(C)C)n1` [Compound D1S16N12], 3.0%.
As for `CCCCCCCCCCCCCCCCSc1nc(NCCCCCCCCCCCCC)nc(NCCN(C)C)n1` [Compound D1S16N13], the “Absolute mRNA transfection efficiency” value is reported as 0.9%.
For the compound `CCCCCCCCCCCCCCCCSc1nc(NCCCCCCCCCCCCCCC)nc(NCCN(C)C)n1` [Compound D1S16N15], the “Absolute mRNA transfection efficiency” value is on record as 1.4%.
Under `CCCCCCCCCCCCCCCCNc1nc(NCCN(C)C)nc(SCCCCCCCCCCCCCCCC)n1` [Compound D1S16N16] stands 0.9%.
With `CCCCCCCCCCCCCCCCCCNc1nc(NCCN(C)C)nc(SCCCCCCCCCCCCCCCC)n1` [Compound D1S16N18], the “Absolute mRNA transfection efficiency” value came out at 0.5%.
Under `CCCCCCCCCCCCCCCCCCSc1nc(NCCCCCC)nc(NCCN(C)C)n1` [Compound D1S18N6] stands 42.6%; under `CCCCCCCCCCCCCCCCCCSc1nc(NCCCCCCC)nc(NCCN(C)C)n1` [Compound D1S18N7], 63.0%; under `CCCCCCCCCCCCCCCCCCSc1nc(NCCCCCCCC)nc(NCCN(C)C)n1` [Compound D1S18N8], 38.0%.
On to `CCCCCCCCCCCCCCCCCCSc1nc(NCCCCCCCCC)nc(NCCN(C)C)n1` [Compound D1S18N9], for which the “Absolute mRNA transfection efficiency” value is on record as 30.3%.
On to `CCCCCCCCCCCCCCCCCCSc1nc(NCCCCCCCCCCC)nc(NCCN(C)C)n1` [Compound D1S18N11], for which the “Absolute mRNA transfection efficiency” value was 1.3%.
Consider `CCCCCCCCCCCCCCCCCCSc1nc(NCCCCCCCCCCCC)nc(NCCN(C)C)n1` [Compound D1S18N12], for which the “Absolute mRNA transfection efficiency” value is 2.3%.
Turning to `CCCCCCCCCCCCCCCCCCSc1nc(NCCCCCCCCCCCCC)nc(NCCN(C)C)n1` [Compound D1S18N13], the “Absolute mRNA transfection efficiency” value is given as 0.2%.
